Assay results as given in article PMC7725506, “Functional Diversification of SRSF Protein Kinase to Control Ubiquitin-Dependent Neurodevelopmental Signaling” (Developmental Cell, 2020).

Target: T1, SRPK1 (Mus musculus, UniProt O70551)
T1 construct: endogenous in cells; host or cells: mESCs (CCE line)
Experiment: SRPK1 immunoprecipitation kinase assay from inhibitor-treated mESCs with RNF12 as substrate
Type: cell-based
Details: mESCs pre-treated with 10 μM for 4 h
Experimental: SRSF phosphorylation, SRPK1, SRPK2, and ERK1/2 levels were determined by immunoblotting. Expected positions of SRSFs that are not detected are shown in gray. Quantification of SRSF phosphorylation (Right). Data represented as mean ± SEM (n = 4). […] Neuro 2a is a control for exon 16b exclusion in differentiated cells (Bottom). Data represented as mean ± SEM (n = 3). […] Exon 16 inclusion: (^∗∗∗∗) p < 0.0001, Exon 16b inclusion: (^∗) p = 0.0164, p = 0.0485, and p = 0.0489 (left to right). Ratio exon 16b/16: (^∗∗∗∗) p < 0.0001, (^∗∗∗) p = 0.0003. (C) SRPK substrates predicted using ScanProsite and grouped according to UniProt functions. (D) RNF12 phosphorylation sites detected by mass-spectrometry. LZL, leucine-zipper like; NLS, nuclear localization signal; NES, nuclear export signal; RING, RING E3 ubiquitin ligase catalytic domain. (E) CMGC family kinase copy numbers in mESCs determined by quantitative proteomics and represented using Kinoviewer. (F) CMGC kinase (200 mU) phosphorylation of the RNF12 SR-motif in vitro was determined by immunoblotting for RNF12 phospho-Ser214 and total RNF12. […] Normalized RNF12 Ser214 phosphorylation is shown below. Data represented as mean ± SEM (n = 3). […] RNF12 SR-motif phosphorylation was analyzed by immunoblotting for RNF12 phospho-Ser214 and RNF12. SRPK1 and SRPK2 levels are shown as a loading control, Related to Figure S1; Tables S1 and S2. […]

T1 sequence (O70551 whole entry): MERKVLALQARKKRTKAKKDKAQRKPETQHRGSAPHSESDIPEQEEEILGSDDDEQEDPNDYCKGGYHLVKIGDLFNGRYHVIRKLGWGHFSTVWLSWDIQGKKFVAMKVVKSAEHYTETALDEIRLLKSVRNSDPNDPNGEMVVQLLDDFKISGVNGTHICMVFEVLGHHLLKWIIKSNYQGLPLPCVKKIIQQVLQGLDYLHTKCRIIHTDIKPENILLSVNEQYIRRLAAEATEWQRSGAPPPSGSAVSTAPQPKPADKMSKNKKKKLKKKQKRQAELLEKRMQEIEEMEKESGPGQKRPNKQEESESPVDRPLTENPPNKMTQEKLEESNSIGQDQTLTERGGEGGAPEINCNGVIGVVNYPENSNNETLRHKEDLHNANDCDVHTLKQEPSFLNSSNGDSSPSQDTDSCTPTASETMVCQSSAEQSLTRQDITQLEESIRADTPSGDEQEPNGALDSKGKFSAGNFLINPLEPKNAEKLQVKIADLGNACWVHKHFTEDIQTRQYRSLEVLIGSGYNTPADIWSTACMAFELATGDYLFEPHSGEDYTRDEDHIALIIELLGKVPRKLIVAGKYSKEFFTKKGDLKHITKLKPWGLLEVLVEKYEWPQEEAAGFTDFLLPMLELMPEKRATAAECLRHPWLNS

In the case of `CCc1cc2c(cc1-c1cccc(S(=O)(=O)F)c1)C(C)(C)c1[nH]c3cc(C#N)ccc3c1C2=O` [SRPKIN-1], the “inhibition of SRPK1 in vivo (ability of immunoprecipitates to phosphorylate RNF12)” value is reported as “potently inhibited”.
